# Assay results as given in US9447446B2, “Lipid multilayer microarrays and their use for cell culture screening” (FLORIDA STATES UNIVERSITY RESEARCH FOUNDATION, priority 2011, dated 2016).
# What was measured:
# [1] = system: NIH 3T3 cells; experiment: live cell imaging of DOPE-rhodamine uptake from lipid pattern; format: cell-based; conditions: cells cultured over lipid pattern for 25 hours; decrease starts after 20 hours, complete by 25 hours
# Protocol: DOTAP is mixed with 1 mol % DOPE-rhodamine, and 2 μL was deposited in the M-type inkwell for the DPN 2000.
# Microscopy for all the imaging except the supplementary video is done with a Nikon Eclipse Ti microscope. The printed patterns and the Retiga-SRV fast 1394 camera are used. Patterns are imaged in brightfield before cell culture. Nikon fluorescence filter sets B-2E/C FITC and G-2E/C TRITC are used for the live/dead cell assay. Imaging is done at 800 m sec exposure time with the 10× (NA=0.3) objective and at 1 second for the 4× (NA=0.13) objective. Lamp intensity for all imaging is set at 4. Microscopy for the live cell lipid uptake for the supplementary video is done with a Nikon TE-2000-E inverted microscope equipped with a Nikon Plan Apo 40× (NA=0.95) DIC objective.
# FIGS. 10, 11, 12, 13, 14 and 15 show the uptake of DOPE-rhodamine-labeled DOTAP by NIH 3T3 cells. […] Fluorescence intensity is used as the indicator of the amount of lipid taken up by the cells. A higher fluorescence in cells indicates higher uptake of lipids. Grid lines 1022 and 1024 in FIG. 10 and grid lines 1026 and 1028 in FIGS. 10 and 11 divide the images of FIGS. 10 and 11 into areas 1032 and 1034, respectively, analyzed and compared for fluorescence intensity before and after cell incubation on the patterns. […]
# [2] = system: NIH 3T3 cells; format: cell-based; conditions: for cell death over drug pattern: lipid (DOTAP)-encapsulated drug pattern, FIG. 21
# Protocol: NIH 3T3 cells (obtained from the American Type Culture Collection, CRL-1658™, and maintained according to the collections guidelines) for all experiments are seeded at 4×10^5 cells/mL and grown to 70% confluence in Dulbecco's Modified Eagle Medium supplemented with 10% Cosmic Calf Serum (Sigma Aldrich). Trypsin (0.25%) is used for cell detachment, and the medium is replaced with fresh medium 24 hours before the experiment. Cells are seeded onto the patterned glass coverslips by gently pipetting a drop of the cell suspension directly over each pattern to prevent the patterns from being washed away. The same method is used to seed other parts of the slide for use as control areas. The cells are incubated over the patterned areas for 48 hours.
# Aliquots of valinomycin (20 mg/mL) and DOTAP (20 mg/mL), both dissolved in chloroform, are placed in an amber glass vial and serially diluted to produce valinomycin masses of 20, 10, 5, 2.5, 1.25 and 0.63 mg. Drying, liposome formation and cell culture are conducted as described above for the Rhodamine dose-response. Toxicity assays are performed after 24 and 48 hours.
# Docetaxel (20 mg/mL) dissolved in DMSO is further serially diluted in Hank's buffered salt solution to produce seven solutions with docetaxel masses of 50, 25, 12.5, 6.25, 3.2, 1.6 and 0.8 mg respectively, each with a total volume of […]. The eighth is a solution of DMSO only (control) at the same volume as the 50 mg solution. These mixtures are added to […] of medium and added to the cells in the same manner as described above for the Rhodamine dose-response. Toxicity assays are performed after incubation for 48 hours.
# The BacLight live/dead assay is purchased from Invitrogen. The cells are incubated with both SYTO 9 and propidium iodide for 20 min. The cells stained with both are counted as dead, and those stained with SYTO 9 only are counted as live.^34,35 All counting of live and dead cells is done by hand.
# Valinomycin is tested first because of its quick action as a cytotoxic agent and immediate action upon incorporation into the cellular membrane. The drug acts as a potassium ionophore, facilitating loss of potassium and resulting in cell death. FIGS. 16, 17, 18 and 19 show a toxicity assay of cells that are cultured over a lipid multilayer microarray. […] In FIGS. 16, 17 and 18, arrows in 1612, 1614 and 1616 point to the same alignment mark. FIG. 16 is a brightfield image of DOTAP/valinomycin pattern before cell culture. […] FIG. 18 is a higher magnification of the square area 1702 of FIG. 17. Images are taken after 24 hours. Images in FIGS. 17 and 18 are the merged TRITC and FITC fluorescence channel images. FIG. 19 is a mosaic of images (TRITC filter set). Central square 1902 corresponds to FIG. 17, and the other squares are the areas immediately surrounding central square 1902. All live cells are stained green; nuclei of dead cells are stained red.
# Taxotere® (docetaxel) is an anticancer drug and is a second-generation, semisynthetic analog of Taxol® (paclitaxel). Taxanes, which include paclitaxel and docetaxel, work by binding to microtubules and stabilizing them, thus preventing their disassembly and progression through mitosis, and therefore their functioning inside the cytoplasm. The cell may revert to the G1 phase or undergo apoptosis.^36 Cells are plated over patterns (such as that in FIG. 16) consisting of lipid only, lipid-encapsulated docetaxel and lipid-encapsulated valinomycin, all on the same glass coverslip and incubated for 48 hours. The results are shown in FIGS. 20, 21, 22, 23, 24, 25, 26, 27, 28 and 29.
# [3] = NIH 3T3 cells, 48 hours, live/dead assay
compound,measurement,setting,value
"1,2-dioleoyl-sn-glycerol-3-phosphoethanolamine-N-(lissamine rhodamine b sulfonyl) (ammonium salt) [DOPE-rhodamine]",critical uptake time (window in which fluorescence of absorbed spots disappears),[1],5 h
"CCCCCCCC/C=C\CCCCCCCC(=O)OCC(C[N+](C)(C)C)OC(=O)CCCCCCC/C=C\CCCCCCCC.[Cl-] (stereo not shown) [DOTAP, 1,2-dioleoyl-3-trimethylammonium-propane (chloride salt)]",toxicity of lipid-only pattern versus control with medium only,"[2]; DOTAP-only pattern, NIH 3T3 cells, 48 hours, p>0.05",did not differ significantly
CC(=O)O[C@@]12CO[C@@H]1C[C@H](O)[C@@]1(C)C(=O)[C@H](O)C3=C(C)[C@@H](OC(=O)[C@H](O)[C@@H](NC(=O)OC(C)(C)C)c4ccccc4)C[C@@](O)([C@@H](OC(=O)c4ccccc4)[C@H]21)C3(C)C [docetaxel],comparable concentration of docetaxel dissolved in DMSO delivered from solution,"[2]; equivalent solution concentration for the toxicity of the docetaxel pattern, 48 hours",approximately 6.25 mg/mL
same,cell death over drug pattern,[2]; [3],over 60%
CC(C)[C@@H]1NC(=O)[C@H](C)OC(=O)[C@@H](C(C)C)NC(=O)[C@@H](C(C)C)OC(=O)[C@H](C(C)C)NC(=O)[C@H](C)OC(=O)[C@@H](C(C)C)NC(=O)[C@@H](C(C)C)OC(=O)[C@H](C(C)C)NC(=O)[C@H](C)OC(=O)[C@@H](C(C)C)NC(=O)[C@@H](C(C)C)OC1=O [valinomycin],toxicity level from the surface (cells killed),"[2]; DOTAP/valinomycin pattern (4:1 lipid-to-drug), NIH 3T3 cells, 24 hours, live/dead assay",about 11%
same,corresponding concentration of liposomal drug delivered from solution,"[2]; equivalent solution concentration for the toxicity of the DOTAP/valinomycin pattern, 24 hours",about 0.1 mg/mL
same,cell death over drug pattern,[2]; [3],about 25%
